Here are results for 1 compound from article PMC6199279, “Design of Peptoid-peptide Macrocycles to Inhibit the β-catenin TCF Interaction in Prostate Cancer” (Nature Communications, 2018).

Assay [1] addresses T1, β-catenin:TCF4 protein interaction (Homo sapiens, UniProt P35222).
T1 construct: host or cells: HEK293
T1 sequence (P35222 2-781 limits assumed): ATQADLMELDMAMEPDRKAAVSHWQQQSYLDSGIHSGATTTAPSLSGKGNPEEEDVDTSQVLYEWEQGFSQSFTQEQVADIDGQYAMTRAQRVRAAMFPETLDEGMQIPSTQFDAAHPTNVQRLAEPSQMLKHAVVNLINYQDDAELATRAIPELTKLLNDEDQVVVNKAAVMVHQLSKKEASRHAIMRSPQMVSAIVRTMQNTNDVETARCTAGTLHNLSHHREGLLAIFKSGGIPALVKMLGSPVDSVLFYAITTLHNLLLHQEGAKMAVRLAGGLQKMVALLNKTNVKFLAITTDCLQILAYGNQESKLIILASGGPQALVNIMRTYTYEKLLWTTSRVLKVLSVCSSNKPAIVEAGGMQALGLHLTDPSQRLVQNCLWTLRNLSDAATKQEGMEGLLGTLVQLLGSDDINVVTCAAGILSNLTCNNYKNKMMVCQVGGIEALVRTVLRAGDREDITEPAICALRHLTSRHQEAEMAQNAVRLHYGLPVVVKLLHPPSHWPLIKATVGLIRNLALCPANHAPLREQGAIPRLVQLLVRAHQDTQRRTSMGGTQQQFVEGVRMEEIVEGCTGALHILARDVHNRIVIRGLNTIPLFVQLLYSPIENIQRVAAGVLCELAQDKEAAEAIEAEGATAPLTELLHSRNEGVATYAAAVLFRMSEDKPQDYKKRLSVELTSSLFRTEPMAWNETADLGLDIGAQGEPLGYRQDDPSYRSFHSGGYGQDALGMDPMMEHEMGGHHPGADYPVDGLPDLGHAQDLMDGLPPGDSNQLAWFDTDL
Kind of assay: Co-immunoprecipitation of myc-TCF4 and endogenous β-catenin in HEK293 cells. The settings on record: HEK293 cells with myc-TCF4, 10 µM, 48 h, vs vehicle. It counts as cell-based. How it is done: (§1) We next characterized the dose response curves for compound 13 in the Wnt and AR luciferase reporters. The linear version of 13 (linear 13: NH2-|N-mpp, N-dmp, N-ipp, N-Smpe, N-Smpe, D-Ala|-OH) was used as a control compound. […] To test direct binding, we pre-formed dynamic light scattering (DLS) with β-catenin in the presence of vehicle, compound 13, and α-cyclodextrin. […] HEK293 cells were transiently transfected with a plasmid expressing full length, myc-tagged TCF4. After 48 h treatment with either vehicle (DMSO) or 10 µM 13, cells were lysed and myc-TCF4 protein was immunoprecipitated.
LNCaP-abl and LNCaP-95 cells were cultured in indicator free RPMI 1640 media (Life) supplemented with 10% charcoal stripped FBS, 1% pennicillin/streptomycin, and 1% L-Glutamine. HEK-293 Cells were cultured in DMEM media (Life) supplemented with 10%FBS and 1% pennicillin/streptomycin. A549 and U2OS cells were cultured in RPMI 1640 media (Life) and McCoy’s 5 A modified media (Life), respectively, both supplemented with 10%FBS and 1% pennicillin/streptomycin. […] Both were measured using the ONE-Glo detection kit (Promega) and data is standardized to CellTiter-Fluor (Promega) viability readings to account for potential variations in well to well cell number. […] Total protein concentration in cell lysates were determined using Pierce Rapid Gold BCA Protein Assay Kit (Thermo). […]

Assay [2] relates to TOP-Flash Wnt luciferase reporter. In words: TOP-Flash Wnt luciferase reporter assay in LNCaP-abl cells. Format: cell-based.
Text: Using a TOP-Flash Wnt luciferase reporter, we tested the 12 oligomers identified from in silico modeling for inhibitory activity (Fig. 2b). […] We also employed a 3 × -Androgen Response Element (ARE) luciferase reporter to measure the effect on AR activity. […] As additional controls, we obtained previously developed, commercially available Wnt inhibitors and tested them in the Wnt luciferase assay (Supplementary Fig. 5).
as §1
LNCaP-abl and LNCaP-95 cells were cultured in indicator free RPMI 1640 media (Life) supplemented with 10% charcoal stripped FBS, 1% pennicillin/streptomycin, and 1% L-Glutamine. HEK-293 Cells were cultured in DMEM media (Life) supplemented with 10%FBS and 1% pennicillin/streptomycin. A549 and U2OS cells were cultured in RPMI 1640 media (Life) and McCoy’s 5 A modified media (Life), respectively, both supplemented with 10%FBS and 1% pennicillin/streptomycin. LNCaP-abl, and LNCaP-95 cell lines were generous gifts from Z. Culig (Innsbruck Medical University, Austria) and J. Isaacs (Johns Hopkins University, Baltimore, MD), respectively. Cell lines were authenticated by STR profiling (Genetica Cell Line Testing; Burlington, NC). A549 and U2OS were purchased from ATCC (product numbers CCL-185 and HTB-96). Cell lines were routinely screened for mycoplasma. Luciferase assays were conducted using stably transfected TOP-flash and 3xARE LNCaP-abl cell lines. For the Wnt pathway, TOP-Flash LNCaP-abl cells were treated with 1 nM siAPC (a 1:1:1 mix of Ambion Silencer Silect siAPC RNA, ID#s s1433, s1434, s1435) for 24 h and seeded into 384-well plates at 5000 cells/well, followed by 24 h of treatment with compound. For the AR-pathway, 3xARE LNCaP-abl cells were seeded into 384-well plates at 5000 cells per well, treated for 48 h with compound, with the addition of R1881 for the final 8 h. Both were measured using the ONE-Glo detection kit (Promega) and data is standardized to CellTiter-Fluor (Promega) viability readings to account for potential variations in well to well cell number. Control Wnt inhibitors were purchased from Sigma with the exception of PRI-724 which was purchased from Selleckchem. Co-immunoprecipitation was carried out using HEK293 cells transfected with either myc-TCF (addgene #32738) or myc-TCF dominant negative (addgene #32739) followed by 48 h of treatment with compound. Cells were lysed using Triton lysis buffer and 1 mg total protein was incubated overnight at 4 C with 40 µl anti-cMyc magnetic beads (Thermo). Total protein concentration in cell lysates were determined using Pierce Rapid Gold BCA Protein Assay Kit (Thermo). The beads were washed 3× with lysis buffer then boiled in 2X sample loading dye. SDS-PAGE and western blotting were performed using anti-Myc (CST 2276) and anti-β-catenin (CST 8480). Both antibodies were diluted in blocking buffer 1:1000 and incubated overnight at 4 C with the membrane. […]

In assay [3] the test system is LNCaP-abl spheroids. How it is done:
To evaluate the impact of the compounds under 3D cell culture conditions thought to be more representative of tumors, we grew LNCaP-abl cells in low attachment plates. The effects on spheroid formation and growth were evaluated following treatment with vehicle, 13, or linear 13 administered at the time of seeding at low cell density in a 384-well plate. In a separate experiment, to test the impact on pre-formed spheroids, cells were treated 5 days after initial seeding. Spheroids from both experiments were grown for 22 days, with compound refreshed on days 5, 9, 13, 16, and 20. […] PrestoBlue was used to measure cell viability on day 22 (Fig. 5b). […] Figure 5c–f depicts spheroid area over time based on size measurements from the images taken throughout the experiment.
Scale bar represents 400 μm. b End point viability measurements taken on day 22 using PrestoBlue. c–f Time course of spheroid areas calculated from images taken throughout the experiment.
LNCaP-abl cells were seeded into 384-well ultra-low attachment plates (Corning), 1000 cells/well. Varying concentrations of compound were added either on the same day as seeding or on day 5. Media was changed every 3–4 days using a Biotek automated media exchanger. Images were taken using an ArraySca VTI (Cellomics) on days 5, 9, 13, 16, 20, and 22. Images were analyzed for spheroid area with the HCS Studio Cellomics Scan Version 6.6.0 (Thermo) software. A final viability measurement was taken on day 22 using PrestoBlue reagent (Thermo).

Like-named read-outs stand apart in the source and are kept apart here. Numbered stars: 1 amine (or outer) side, 2 acyl side, 3 side chain; on linkers, the order of the positions; unused ones are H or OH. Square brackets hold non-standard residues; d marks the D form. Peptide text beside a SMILES is read from it. N(2-(2-PhOPh)Et)Gly = O=C(O)CNCCc1ccccc1Oc1ccccc1; Gly(N-3,5-(OMe)2-Ph) = COc1cc(NCC(=O)O)cc(OC)c1; X1 = COc1ccc([C@H](C)N(CC(=O)[*:2])[*:1])cc1; N((CH2)3OiPr)Gly = CC(C)OCCCNCC(=O)O

`COc1ccc([C@H](C)N2CC(=O)N[C@H](C)C(=O)N(CCc3ccccc3Oc3ccccc3)CC(=O)N(c3cc(OC)cc(OC)c3)CC(=O)N(CCCOC(C)C)CC(=O)N([C@@H](C)c3ccc(OC)cc3)CC2=O)cc1` [Compound 13] (cyclo([dA][N(2-(2-PhOPh)Et)Gly][Gly(N-3,5-(OMe)2-Ph)][N((CH2)3OiPr)Gly][X1][X1])): the “β-catenin:TCF association (co-immunoprecipitated β-catenin)” value in assay [1] is listed as “decreased”. In addition, in assay [2] (10 µM compound, relative to vehicle), the “Wnt inhibitory activity (TOP-Flash luciferase)” value was “more effective”. Further, the IC50 is 0.105 µM in assay [2] (TOP-Flash LNCaP-abl cells, siAPC knockdown, 24 h compound, ± SD of three replicates, read-out: IC50 for Wnt luciferase inhibition); 0.694 µM in assay [3] (read-out: IC50 spheroid proliferation, treatment started Day 0, PrestoBlue viability on day 22, compound added at seeding); 1.34 µM in assay [3] (read-out: IC50 spheroid proliferation, treatment started Day 5, PrestoBlue viability on day 22, pre-formed spheroids). Also, the “Spheroid growth, compound added day 0” value in assay [3] (0.5 µM) is recorded as “slowed growth”. The “Spheroid formation, compound added day 0” value in assay [3] (20 µM, 10 µM, 5 µM, 2 µM and 1 µM) is recorded as “prevented spheroid formation”. The “Growth of pre-formed spheroids, treatment started day 5” value in assay [3] (at or above 2 µM) was “stalled the growth of pre-formed spheroids”. Also, the “Spheroid growth, low concentrations” value in assay [3] (between 0.001 µM and 0.1 µM) is on record as “little effect”.
